Assays:
[1] = tested on: PKB Ser473 phosphorylation in Rat1-myr-HA-p110 delta cells; assay: Reverse protein array assay, PKB Ser473 phosphorylation in Rat1-myr-p110 delta cells; assay type: cell-based; conditions: read-out: p-PKB IC50
Outline: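 After at least 20 h of culture, the p110 isoform-transfected Rat1 lines receive compound in an 8-step dilution series, keeping DMSO at 0.2%, for 30 minutes. Cells are then lysed and lysates arrayed on chips for fluorescence detection of Ser473-phosphorylated PKB.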

[2] = target: T1, PI3K beta (Homo sapiens, UniProt P42338); assay: PI3K beta kinase assay (Kinase-Glo luminescence); assay type: biochemical
T1 construct: for the full-length p110-b subunit are generated and fused by overlapping PCR; p85(iSH2) fusion partner (see partner chain) (N); His tag (C); made in house; host or cells: baculovirus; Tn5 (Trichoplusia ni) or TiniPro insect cells
T1 sequence (P42338 with tags, fused parts or gaps limits assumed): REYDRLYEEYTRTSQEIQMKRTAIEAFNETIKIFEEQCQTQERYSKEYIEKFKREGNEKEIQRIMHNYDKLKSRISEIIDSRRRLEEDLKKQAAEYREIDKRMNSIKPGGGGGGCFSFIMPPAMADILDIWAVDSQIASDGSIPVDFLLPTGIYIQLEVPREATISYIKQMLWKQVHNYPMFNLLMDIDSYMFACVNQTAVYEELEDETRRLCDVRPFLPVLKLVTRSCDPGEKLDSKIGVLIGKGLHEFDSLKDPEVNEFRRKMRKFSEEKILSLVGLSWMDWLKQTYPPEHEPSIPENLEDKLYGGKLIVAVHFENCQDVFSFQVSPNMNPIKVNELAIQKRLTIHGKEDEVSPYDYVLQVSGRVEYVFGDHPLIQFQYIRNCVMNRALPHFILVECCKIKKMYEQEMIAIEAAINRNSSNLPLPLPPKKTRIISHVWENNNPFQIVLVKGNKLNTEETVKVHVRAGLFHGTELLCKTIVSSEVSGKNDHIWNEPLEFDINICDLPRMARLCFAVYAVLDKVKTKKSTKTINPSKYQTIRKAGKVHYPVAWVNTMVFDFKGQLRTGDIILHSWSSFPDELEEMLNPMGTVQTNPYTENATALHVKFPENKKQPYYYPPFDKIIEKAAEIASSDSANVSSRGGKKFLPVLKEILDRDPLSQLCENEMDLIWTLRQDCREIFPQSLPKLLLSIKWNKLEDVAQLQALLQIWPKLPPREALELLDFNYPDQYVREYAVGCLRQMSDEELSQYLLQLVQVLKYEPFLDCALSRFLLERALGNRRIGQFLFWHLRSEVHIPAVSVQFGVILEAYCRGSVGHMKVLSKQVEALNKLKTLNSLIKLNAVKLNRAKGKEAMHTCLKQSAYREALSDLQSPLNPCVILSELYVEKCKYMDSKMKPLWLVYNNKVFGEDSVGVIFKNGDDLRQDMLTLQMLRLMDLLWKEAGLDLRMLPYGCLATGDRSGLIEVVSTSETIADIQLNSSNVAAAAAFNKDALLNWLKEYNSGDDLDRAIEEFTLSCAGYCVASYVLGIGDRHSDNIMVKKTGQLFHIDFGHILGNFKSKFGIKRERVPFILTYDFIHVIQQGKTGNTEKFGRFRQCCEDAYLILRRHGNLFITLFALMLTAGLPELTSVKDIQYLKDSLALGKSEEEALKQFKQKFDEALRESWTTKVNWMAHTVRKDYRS
Outline: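 Kinase-Glo luminescence after a 60 min room-temperature reaction gives remaining ATP. The reaction holds 25 nM p85(iSH2)-p110β full-length His-tagged construct, 1 μM ATP, 10 μg/mL PI, and eight compound concentrations at 0.45% DMSO final. IC50 values come from a four-parameter logistic fit.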

Row | SMILES | IC50 [1] | IC50 [2]
1 | COc1ncc(-c2ccc3ncc4c(c3c2)n(-c2cn(C)nc2C)c(=O)n4C)cc1C#N [Example 132, 5-[1-(1,3-Dimethyl-1H-pyrazol-4-yl)-3-methyl-2-oxo-2,3-dihydro-1H-imidazo[4,5-c]quinolin-8-yl]-2-methoxy-nicotinonitrile] | 145 nM | 161 nM
2 | CNc1ncc(-c2ccc3ncc4c(c3c2)n(-c2c(C)nn(C)c2C)c(=O)n4C)cc1F [Example 141.1, 8-(5-Fluoro-6-methylamino-pyridin-3-yl)-3-methyl-1-(1,3,5-trimethyl-1H-pyrazol-4-yl)-1,3-dihydro-imidazo[4,5-c]quinolin-2-one] | 403 nM | 469 nM
3 | CNc1ncc(-c2ccc3ncc4c(c3c2)n(-c2cn(C)nc2C)c(=O)n4C)cc1F [Example 141.2, 1-(1,3-Dimethyl-1H-pyrazol-4-yl)-8-(5-fluoro-6-methylamino-pyridin-3-yl)-3-methyl-1,3-dihydro-imidazo[4,5-c]quinolin-2-one] | 21 nM | 142 nM
4 | Cc1nn(C)c(C)c1-n1c(=O)n(C)c2cnc3ccc(-c4cnc(N)c(F)c4)cc3c21 [Example 142.1, 8-(6-Amino-5-fluoro-pyridin-3-yl)-3-methyl-1-(1,3,5-trimethyl-1H-pyrazol-4-yl)-1,3-dihydro-imidazo[4,5-c]quinolin-2-one] | 306 nM | 201 nM
5 | CNc1ncc(-c2ccc3ncc4c(c3c2)n(-c2c(C)nn(C)c2C)c(=O)n4C)cc1Cl [Example 146.4, 8-(5-Chloro-6-methylamino-pyridin-3-yl)-3-methyl-1-(1,3,5-trimethyl-1H-pyrazol-4-yl)-1,3-dihydro-imidazo[4,5-c]quinolin-2-one] | 133 nM | 176 nM
6 | CNc1ncc(-c2ccc3ncc4c(c3c2)n(-c2cc(C)nn2C)c(=O)n4C)cc1Cl [Example 146.5, 8-(5-Chloro-6-methylamino-pyridin-3-yl)-1-(2,5-dimethyl-2H-pyrazol-3-yl)-3-methyl-1,3-dihydro-imidazo[4,5-c]quinolin-2-one] | 59 nM | 167 nM
7 | Cc1noc(C)c1-n1c(=O)n(C)c2cnc3ccc(-c4cnc(N)c(Cl)c4)cc3c21 [Example 148.4, 8-(6-Amino-5-chloro-pyridin-3-yl)-1-(3,5-dimethyl-isoxazol-4-yl)-3-methyl-1,3-dihydro-imidazo[4,5-c]quinolin-2-one] | 370 nM | 95 nM
8 | CNc1cc(-c2ccc3ncc4c(c3c2)n(-c2cn(C)nc2C)c(=O)n4C)cnc1F [Example 150.2, 1-(1,3-Dimethyl-1H-pyrazol-4-yl)-8-(6-fluoro-5-methylamino-pyridin-3-yl)-3-methyl-1,3-dihydro-imidazo[4,5-c]quinolin-2-one] | 15 nM | 12 nM
9 | CCNc1cc(-c2ccc3ncc4c(c3c2)n(-c2c(C)nn(C)c2C)c(=O)n4C)cnc1F [Example 154.1, 8-(5-Ethylamino-6-fluoro-pyridin-3-yl)-3-methyl-1-(1,3,5-trimethyl-1H-pyrazol-4-yl)-1,3-dihydro-imidazo[4,5-c]quinolin-2-one] | 141 nM | 98 nM
10 | Cc1ncc(-c2ccc3ncc4c(c3c2)n(-c2cn(C)nc2C)c(=O)n4C)cc1N(C)C [Example 164, 8-(5-Dimethylamino-6-methyl-pyridin-3-yl)-1-(1,3-dimethyl-1H-pyrazol-4-yl)-3-methyl-1,3-dihydro-imidazo[4,5-c]quinolin-2-one] | 7 nM | 11 nM
11 | CCNc1ncc(-c2ccc3ncc4c(c3c2)n(-c2cn(C)nc2C)c(=O)n4C)cc1COCC [Example 167, 1-(1,3-Dimethyl-1H-pyrazol-4-yl)-8-(5-ethoxymethyl-6-ethylamino-pyridin-3-yl)-3-methyl-1,3-dihydro-imidazo[4,5-c]quinolin-2-one] | 91 nM | 84 nM
12 | CCn1cc(-n2c(=O)n(C)c3cnc4ccc(-c5cnc(N)c(COC)c5)cc4c32)c(C)n1 [Example 168.2, 8-(6-Amino-5-methoxymethyl-pyridin-3-yl)-1-(1-ethyl-3-methyl-1H-pyrazol-4-yl)-3-methyl-1,3-dihydro-imidazo[4,5-c]quinolin-2-one] | 19 nM | 68 nM

Now from value to molecule:

Row | IC50 [1] | IC50 [2] | SMILES
13 | 326 nM | 9 nM | Cc1ncc(-c2ccc3ncc4c(c3c2)n(-c2cn(C)nc2C)c(=O)n4C)cc1O [Example 185.1, 1-(1,3-Dimethyl-1H-pyrazol-4-yl)-8-(5-hydroxy-6-methyl-pyridin-3-yl)-3-methyl-1,3-dihydro-imidazo[4,5-c]quinolin-2-one]
14 | 54 nM | 36 nM | Cc1nn(C)cc1-n1c(=O)n(C)c2cnc3ccc(-c4cnc(CO)c(OC(C)C)c4)cc3c21 [Example 190, 1-(1,3-Dimethyl-1H-pyrazol-4-yl)-8-(6-hydroxymethyl-5-isopropoxy-pyridin-3-yl)-3-methyl-1,3-dihydro-imidazo[4,5-c]quinolin-2-one]
15 | 101 nM | 50 nM | COc1cc(-c2ccc3ncc4c(c3c2)n(-c2cn(C)nc2C)c(=O)n4C)cnc1CO [Example 193, 1-(1,3-Dimethyl-1H-pyrazol-4-yl)-8-(6-hydroxymethyl-5-methoxy-pyridin-3-yl)-3-methyl-1,3-dihydro-imidazo[4,5-c]quinolin-2-one]
16 | 154 nM | 72 nM | COCc1ncc(-c2ccc3ncc4c(c3c2)n(-c2cn(C)nc2C)c(=O)n4C)cc1OC [Example 195.1, 1-(1,3-Dimethyl-1H-pyrazol-4-yl)-8-(5-methoxy-6-methoxymethyl-pyridin-3-yl)-3-methyl-1,3-dihydro-imidazo[4,5-c]quinolin-2-one]
17 | 343 nM | 163 nM | COCc1ncc(-c2ccc3ncc4c(c3c2)n(-c2cn(C(C)C)nc2C)c(=O)n4C)cc1OC [Example 195.2, 1-(1-Isopropyl-3-methyl-1H-pyrazol-4-yl)-8-(5-methoxy-6-methoxymethyl-pyridin-3-yl)-3-methyl-1,3-dihydro-imidazo[4,5-c]quinolin-2-one]
18 | 255 nM | 161 nM | CCn1cc(-n2c(=O)n(C)c3cnc4ccc(-c5cnc(COC)c(OC)c5)cc4c32)c(C)n1 [Example 195.3, 1-(1-Ethyl-3-methyl-1H-pyrazol-4-yl)-8-(5-methoxy-6-methoxymethyl-pyridin-3-yl)-3-methyl-1,3-dihydro-imidazo[4,5-c]quinolin-2-one]
19 | 29 nM | 27 nM | [2H]C([2H])([2H])OCc1ncc(-c2ccc3ncc4c(c3c2)n(-c2cn(C)nc2Cl)c(=O)n4C)cc1OC [Example 199, 1-(3-Chloro-1-methyl-1H-pyrazol-4-yl)-8-(5-methoxy-6-trideuteromethoxymethyl-pyridin-3-yl)-3-methyl-1,3-dihydro-imidazo[4,5-c]quinolin-2-one]
20 | 28 nM | 13 nM | COCc1cc(-c2ccc3ncc4c(c3c2)n(-c2cn(C)nc2C)c(=O)n4C)cnc1OC [Example 202, 1-(1,3-Dimethyl-1H-pyrazol-4-yl)-8-(6-methoxy-5-methoxymethyl-pyridin-3-yl)-3-methyl-1,3-dihydro-imidazo[4,5-c]quinolin-2-one]
21 | 66 nM | 273 nM | Cc1nn(C)cc1-n1c(=O)n(C)c2cnc3ccc(-c4cnc5c(c4)OCCN5C)cc3c21 [Example 209, 1-(1,3-Dimethyl-1H-pyrazol-4-yl)-3-methyl-8-(4-methyl-3,4-dihydro-2H-pyrido[3,2-b][1,4]oxazin-7-yl)-1,3-dihydro-imidazo[4,5-c]quinolin-2-one]
22 | 178 nM | 10 nM | Cc1nn(C)cc1-n1c(=O)n(C)c2cnc3ccc(-c4cncc(C(C)(C)O)c4)cc3c21 [Example 215.2, 1-(1,3-Dimethyl-1H-pyrazol-4-yl)-8-[5-(1-hydroxy-1-methyl-ethyl)-pyridin-3-yl]-3-methyl-1,3-dihydro-imidazo[4,5-c]quinolin-2-one]
23 | 53 nM | 19 nM | Cc1nn(C)cc1-n1c(=O)n(C)c2cnc3ccc(-c4cncc(C5(O)CCCC5)c4)cc3c21 [Example 218, 1-(1,3-Dimethyl-1H-pyrazol-4-yl)-8-[5-(1-hydroxy-cyclopentyl)-pyridin-3-yl]-3-methyl-1,3-dihydro-imidazo[4,5-c]quinolin-2-one]
24 | 23 nM | 23 nM | Cc1nn(C)cc1-n1c(=O)n(C)c2cnc3ccc(-c4cncc(C(C)(C)C#N)c4)cc3c21 [Example 220.1, 2-{5-[1-(1,3-Dimethyl-1H-pyrazol-4-yl)-3-methyl-2-oxo-2,3-dihydro-1H-imidazo[4,5-c]quinolin-8-yl]-pyridin-3-yl}-2-methyl-propionitrile]
25 | 132 nM | 280 nM | CNC(=O)c1cc(-c2ccc3ncc4c(c3c2)n(-c2cn(C(C)C)nc2C)c(=O)n4C)cnc1N [Example 224.2, 2-Amino-5-[1-(1-isopropyl-3-methyl-1H-pyrazol-4-yl)-3-methyl-2-oxo-2,3-dihydro-1H-imidazo[4,5-c]quinolin-8-yl]-N-methyl-nicotinamide]
26 | 23 nM | 25 nM | COc1ncc(-c2ccc3ncc4c(c3c2)n(-c2cn(C)nc2C)c(=O)n4C)c(OC)n1 [Example 234.2, 8-(2,4-Dimethoxy-pyrimidin-5-yl)-1-(1,3-dimethyl-1H-pyrazol-4-yl)-3-methyl-1,3-dihydro-imidazo[4,5-c]quinolin-2-one]
27 | 13 nM | 90 nM | CCn1cc(-n2c(=O)n(C)c3cnc4ccc(-c5cnc(NC)nc5OC)cc4c32)c(C)n1 [Example 236, 1-(1-Ethyl-3-methyl-1H-pyrazol-4-yl)-8-(4-methoxy-2-methylamino-pyrimidin-5-yl)-3-methyl-1,3-dihydro-imidazo[4,5-c]quinolin-2-one]

Source: patent publication US20140005163A1 (NOVARTIS AG, priority 2010, published 2014)
